{
  "source": "patent US7169972B2",
  "about": "“Methods and compositions to modulate ethylene sensitivity” (The Salk Institute for Biological Studies, priority 2001, dated 2007)",
  "system": "Arabidopsis etiolated seedlings",
  "test": "Ethylene response of etiolated seedlings grown on AT plates versus AT plus ACC (root length inhibition)",
  "format": "in vivo, Arabidopsis thaliana",
  "conditions": "10 uM ACC, 5 days",
  "protocol": "(§1) Phenotypes of 5-day-old etiolated seedlings grown on AT plates in the absence or presence of 10 uM ACC. Data are presented in tabular (A) and graph (B) forms. Ethylene response of 5-day-old etiolated seedlings of WS, Col and two independent quadruple mutant isolates was quantified. Root and hypocotyl lengths of seedlings grown on AT plates versus AT plus 10 uM ACC were measured. Each data point represents the average organ length of 50 or more seedlings plus/minus standard deviation. Fold inhibition was calculated as the ratio of the average organ length in air to that in ACC.\nTo overcome the redundancy problem, crosses were performed between the mutants in different EDF genes to construct double, triple and quadruple mutant combinations. Mutant genotypes were assayed by PCR. […] Importantly, the observed ethylene insensitivity was more dramatic in the quadruple mutant combinations that involved the strong edf1-1 allele (i.e. edf1-1 edf2-1 edf3-1 edf4-1 and edf1-1 edf2-2 edf3-1 edf4-1), compared to those that included the edf1-2 allele (edf1-2 edf2-1 edf3-1 edf4-1 and edf1-2 edf2-2 edf3-1 edf4-1). The weaker phenotype of the latter quadruple mutant combinations is consistent with the leaky expression of EDF1 in the edf1-2 mutant.\nas §1, with “were measured. […] Fold inhibition” for “were measured. Each data point represents the average organ length of 50 or more seedlings plus/minus standard deviation. Fold inhibition”, “in ACC. Similar, yet less dramatic, differences were detected when the hypocotyls of the quadruple and wild-type seedlings were measured.” for “in ACC.”\nArabidopsis thaliana accession Columbia-0 was used for all overexpression studies. […] After 3–4 days in the light at 4 degrees C., the plates were wrapped in foil and kept in a 24 C incubator, after which the phenotypes of seedlings were analyzed. […]",
  "data": [
    {"smiles": "NC1(C(=O)O)CC1", "note": "[ACC, 1-aminocyclopropane-1-carboxylic acid]", "values": [
      {"measurement": "root length inhibition (fold; ratio of average organ length in air to that in ACC)", "setting": "Columbia wild-type seedlings", "result": 9.5, "unit": "fold"},
      {"measurement": "root length inhibition (fold; ratio of average organ length in air to that in ACC)", "setting": "WS wild-type seedlings", "result": 12, "unit": "fold"},
      {"measurement": "root length inhibition (fold; ratio of average organ length in air to that in ACC)", "setting": "quadruple mutant edf1-1 edf2-1 edf3-1 edf4-1 seedlings", "result": "less than 7 fold"}
    ]}
  ]
}
